This note sets out measurements from patent EP1724268A1, “COMPOUND HAVING TGF-BETA INHIBITORY ACTIVITY AND PHARMACEUTICAL COMPOSITION CONTAINING SAME” (KIRIN BEER KABUSHIKI KAISHA, priority 2004, dated 2005).

One experiment concerns A549 cells. Put plainly: Cell growth inhibitory activity using A549 cells (Test Example 6). The settings on record: for inhibition at 30 µM: Homo sapiens, A549, compound 30 µM, 5% serum, 40 hr, counting kit-8, read-out: Cell growth inhibition rate (%); for inhibitory activity against cell growth of A549 cells: as compared with Example 274 described in WO 03/00660; for inhibitory activity against cell growth or BMP4 signals: as compared with Example 261 or Example 269 described in WO 03/00660. It is filed as cell-based, Human. On the procedure: Human lung cancer epithelial cells (A549) (available from ATCC) were suspended to a concentration of 3 × 10^4/ml in a DMEM/F12 medium containing 10%FCS, and the suspension was inoculated in 100 µl portions in wells of a 96-well plate. On the following day, a stock solution of the test compound which had been adjusted to 10 mM with DMSO was adjusted with a serum-free DMEM/F12 medium to a dose (60 µM) which was twice the evaluation concentration. After removing the medium inoculated in the 96 wells on the previous day, the solution was added in 50 µl portions to the plate. Next, a DMEM/F12 medium containing 10% serum was added in 50 µl portions to the wells, followed by culturing at 37°C for 40 hr. The final concentration of the serum and the concentration of the evaluation compound were 5% and 30 µM, respectively. The compounds according to the present invention synthesized in the working example were used as the test compound. […]
After 40 hr, the culture was removed, and 100 µl of a solution prepared by diluting counting kit-8 (purchased from Dojindo) with a serum-free F12 medium by 10 times was added, followed by culturing at 37°C for 20 to 30 min. After the confirmation of suitable color development, the absorbance at 450 nm was measured with ARVO (purchased from Wallach Bethold Japan). The cell growth inhibition in the test compound added wells were determined by presuming the absorbance value in the test compound-free wells to be 0% and the absorbance value in the cell-free wells to be 100%.

The subject of the next experiment is BMP4 signal. Put plainly: BMP signal inhibitory activity, p(GCCG)12-Luc reporter in HepG2 cells (Test Example 7). To be noted: for inhibitory activity against BMP4 signals: as compared with Example 274 described in WO 03/00660; for Selectivity for BMP (times): Inhibitory activity against BMP4 signal (IC50)/Inhibitory activity against TGFβ signal (IC50), HepG2 reporter cells, BMP4 20 ng/ml, TGFβ-1 2 ng/ml, 4 hr. The format is cell-based, human. An excerpt: The inhibitory activity of the compounds according to the present invention against BMP signals was studied using a cell line through which TGFb and BMP signals can be simultaneously observed. Specifically, the cell lines capable of detecting the two signal was generated by transfecting reporter plasmids for detection of TGFb and BMP signals into a human hepatocarcinoma cell line HepG2(available from ATCC) and was used as evaluation cells. For detection of TGF-beta signal, the plasmid having four tandem binding sequences of Smad2/3, TGF-beta signal transducers, to the upstream of a luciferases gene were used as a reporter plasmid (p(SBE)4-Luc/hygro). For detection of BMP signal, the plasmid having twelve tandem binding sequences of Smadl/5/8, BMP signal transducers, to the upstream of a luciferases gene were used as a reporter plasmid (p(GCCG)12-Luc/neo), according to the method described in Mol Biol Cell. 2000 11(2): 555-65. The test compound and TGFβ-1 (2 ng/ml) or BMP4 (20 ng/ml) were added to the cells, and the mixture was cultured for 4 hr. The compounds according to the present invention synthesized in the working example were used as the test compound. […] After the culture, the luciferase activity of the cells was measured by chemiluminescence (Steady Glo (trademark) luciferase assay system, available from Promega). Likewise, the luciferase activity was measured as control for the culture of cells with only TGFβ or BMP4 added thereto and the culture of cells with the addition of none of TGFβ, BMP4 and the test compound. The inhibitory activity IC50 of the compounds against TGFβ and BMP4 was calculated based on the results of measurement, and the kinase selectivity for BMP4 was determined by the following method. Kinase selectivity for BMP4 (times) = Inhibitory activity against BMP4 signal (IC50)/Inhibitory activity against TGFβ signal (IC50)

A further experiment concerns TGFβ signal. Put plainly: TGFβ signal inhibitory activity, (SBE)4-Luc reporter in A549 cells (Test Examples 1A and 1B). It is filed as cell-based, human. The settings on record: Homo sapiens, A549, TGFβ-1 2 ng/ml, 4 hr, Table 1A, read-out: TGFβ inhibition rate, %; for inhibition at 3 µM: test compound 3 µM; for inhibition at 10 µM: test compound 10 µM. In outline:
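Compounds at 3 µM and 10 µM (some 1 µM) were added with 2 ng/ml TGFβ-1 to A549 cells stably expressing an SBE-driven luciferase, then cultured 4 hr. Chemiluminescent luciferase signal gave % inhibition versus TGFβ-alone and no-TGFβ controls.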

What is called inhibition is the drop in the measured response relative to a control, in per cent. As to `CCc1ccc(Oc2ccnc3cc(F)c(OCCO)cc23)c(-c2ncccn2)n1` [Compound 225, 2-[4-(6-Ethyl-2-pyrimidin-2-yl-pyridin-3-yloxy)-7-fluoro-quinolin-6-yloxy]-ethanol], in the experiment on A549 cells, the inhibition at 30 µM turned out to be 8% and the “inhibitory activity against cell growth of A549 cells” value (“inhibitory activity … of A549 cells” below) is on record as “reduced inhibitory activity”. In addition, the “inhibitory activity against BMP4 signals” value in the experiment with BMP4 signal is listed as “reduced inhibitory activity”. Moreover, in the experiment with TGFβ signal, the inhibition at 3 µM came out at 89% and the inhibition at 10 µM turned out to be 99%.

As to `CCc1ccc(Oc2ccnc3ccc(OS(C)(=O)=O)cc23)c(-c2ccccn2)n1` [Compound 187, 4-(6-Ethyl-[2,2']bipyridinyl-3-yloxy)-quinolin-6-yl methanesulfonate], in the experiment on A549 cells, the inhibition at 30 µM came out at 0% and the “inhibitory activity against cell growth or BMP4 signals” value is on record as “reduced inhibitory activity”. Moreover, the “Selectivity for BMP (times)” value in the experiment on BMP4 signal is given as 72 times. In addition, in the experiment on TGFβ signal, the inhibition at 3 µM was determined as 100% and the inhibition at 10 µM is 100%.

In the case of `Cc1cc(Oc2ccnc3ccc(OCCO)cc23)c(-c2ncccn2)nc1C` [Compound 200, 2-[4-(5,6-Dimethyl-2-pyrimidin-2-yl-pyridin-3-yloxy)-quinolin-6-yloxy]-ethanol], in the experiment on A549 cells, the inhibition at 30 µM stood at 0% and the “inhibitory activity … of A549 cells” value is listed as “reduced inhibitory activity”. In the experiment on BMP4 signal, the “Selectivity for BMP (times)” value is 75 times and the “inhibitory activity against BMP4 signals” value is “reduced inhibitory activity”. Further, the inhibition at 3 µM with TGFβ signal stood at 85%.

On to `CCc1ccc(Oc2ccnc3ccc(O)cc23)c(-c2ccccn2)n1` [Compound 184, 4-(6-Ethyl-[2,2']bipyridinyl-3-yloxy)-quinolin-6-ol], for which, in the experiment on A549 cells, the inhibition at 30 µM was determined as 8% and the “inhibitory activity against cell growth or BMP4 signals” value is recorded as “reduced inhibitory activity”. Besides, the “Selectivity for BMP (times)” value in the experiment on BMP4 signal was above 428 times. For the same molecule, in the experiment with TGFβ signal, the inhibition at 3 µM is 100% and the inhibition at 10 µM was found to be 100%.

Take `CCc1ccc(Oc2ccnc3ccc(OCCOC(C)=O)cc23)c(-c2ccccn2)n1` [Compound 182, 2-[4-(6-Ethyl-[2,2']bipyridinyl-3-yloxy)-quinolin-6-yloxy]-ethyl acetate]: in the experiment with A549 cells, the inhibition at 30 µM was -8% and the “inhibitory activity against cell growth or BMP4 signals” value is recorded as “reduced inhibitory activity”. In addition, the “Selectivity for BMP (times)” value in the experiment on BMP4 signal amounted to 195 times. Also, in the experiment with TGFβ signal, the inhibition at 3 µM stood at 99% and the inhibition at 10 µM was determined as 100%.

For `CCc1ccc(Oc2ccnc3ccc(OCCO)cc23)c(-c2ncccn2)n1` [Compound 192, 2-[4-(6-Ethyl-2-pyrimidin-2-yl-pyridin-3-yloxy)-quinolin-6-yloxy]-ethanol], in the experiment with A549 cells, the inhibition at 30 µM came to 3% and the “inhibitory activity … of A549 cells” value is “reduced inhibitory activity”. Besides, in the experiment with BMP4 signal, the “Selectivity for BMP (times)” value is above 176 times and the “inhibitory activity against BMP4 signals” value is on record as “reduced inhibitory activity”. For the same molecule, in the experiment on TGFβ signal, the inhibition at 3 µM was found to be 97% and the inhibition at 10 µM was 100%.

As for `CCc1ccc(Oc2ccnc3cc(C(N)=O)c(O)cc23)c(-c2ncccn2)n1` [Compound 194, 4-(6-Ethyl-2-pyrimidin-2-yl-pyridin-3-yloxy)-6-hydroxy-quinoline-7-carboxylic acid amide], in the experiment on A549 cells, the inhibition at 30 µM is -15% and the “inhibitory activity … of A549 cells” value is reported as “reduced inhibitory activity”. Also, in the experiment with BMP4 signal, the “Selectivity for BMP (times)” value is 51 times and the “inhibitory activity against BMP4 signals” value is on record as “reduced inhibitory activity”. The inhibition at 3 µM with TGFβ signal came to 60%.

As to `CCc1ccc(Oc2ccnc3ccc(OCCOC(C)=O)cc23)c(-c2ncccn2)n1` [Compound 206, 2-[4-(6-Ethyl-2-pyrimidin-2-yl-pyridin-3-yloxy)-quinolin-6-yloxy]-ethyl acetate], in the experiment on A549 cells, the inhibition at 30 µM was -1% and the “inhibitory activity … of A549 cells” value was “reduced inhibitory activity”. Further, in the experiment on BMP4 signal, the “inhibitory activity against BMP4 signals” value was “reduced inhibitory activity”. Further, the inhibition at 3 µM with TGFβ signal came to 89%.

As to `Cc1ccc(Oc2ccnc3ccc(O)cc23)c(-c2ncccn2)n1` [Compound 201, 4-(6-Methyl-2-pyrimidin-2-yl-pyridin-3-yloxy)-quinolin-6-ol], in the experiment with A549 cells, the inhibition at 30 µM was 2% and the “inhibitory activity … of A549 cells” value was “reduced inhibitory activity”. Moreover, the “inhibitory activity against BMP4 signals” value with BMP4 signal was “reduced inhibitory activity”. Further, in the experiment on TGFβ signal, the inhibition at 3 µM was determined as 82%.

Regarding `Cc1ccc(Oc2ccnc3ccc(OCCCO)cc23)c(-c2ncccn2)n1` [Compound 222, 3-[4-(6-Methyl-2-pyrimidin-2-yl-pyridin-3-yloxy)-quinolin-6-yloxy]-propan-1-ol], in the experiment on A549 cells, the inhibition at 30 µM was determined as 6% and the “inhibitory activity … of A549 cells” value is reported as “reduced inhibitory activity”. The “inhibitory activity against BMP4 signals” value in the experiment on BMP4 signal is reported as “reduced inhibitory activity”. Further, in the experiment on TGFβ signal, the inhibition at 3 µM is 91% and the inhibition at 10 µM worked out at 100%.

As for `Cc1ccc(Oc2ccnc3ccc(OCCO)cc23)c(-c2ncccn2)n1` [Compound 202, 2-[4-(6-Methyl-2-pyrimidin-2-yl-pyridin-3-yloxy)-quinolin-6-yloxy]-ethanol], in the experiment with A549 cells, the inhibition at 30 µM is 8% and the “inhibitory activity … of A549 cells” value is recorded as “reduced inhibitory activity”. In the experiment on BMP4 signal, the “Selectivity for BMP (times)” value came out at 21.4 times and the “inhibitory activity against BMP4 signals” value was “reduced inhibitory activity”. Also, the inhibition at 3 µM in the experiment on TGFβ signal is 86%.

Consider `Cc1ccc(Oc2ccnc3cc(C(N)=O)ccc23)c(-c2ncccn2)n1` [Compound 217, 4-(6-Methyl-2-pyrimidin-2-yl-pyridin-3-yloxy)-quinoline-7-carboxylic acid amide], for which, in the experiment on A549 cells, the inhibition at 30 µM came out at 4% and the “inhibitory activity … of A549 cells” value was “reduced inhibitory activity”. For the same molecule, the “inhibitory activity against BMP4 signals” value in the experiment with BMP4 signal is “reduced inhibitory activity”. In the experiment with TGFβ signal, the inhibition at 3 µM was 90% and the inhibition at 10 µM was found to be 100%.

As to `CCc1ccc(Oc2ccnc3ccc(OCCN)cc23)c(-c2ncccn2)n1` [Compound 204, 2-[4-(6-Ethyl-2-pyrimidin-2-yl-pyridin-3-yloxy)-quinolin-6-yloxy]-ethylamine], in the experiment with A549 cells, the inhibition at 30 µM was -9% and the “inhibitory activity … of A549 cells” value is on record as “reduced inhibitory activity”. The “inhibitory activity against BMP4 signals” value in the experiment with BMP4 signal is “reduced inhibitory activity”. For the same molecule, in the experiment on TGFβ signal, the inhibition at 3 µM is 84%.

With `CCc1ccc(Oc2ccnc3ccc(OCCO)cc23)c(-c2ccccn2)n1` [Compound 181, 2-[4-(6-Ethyl-[2,2']bipyridinyl-3-yloxy)-quinolin-6-yloxy]-ethanol], in the experiment on A549 cells, the inhibition at 30 µM was -7% and the “inhibitory activity against cell growth or BMP4 signals” value is “reduced inhibitory activity”. In the experiment with BMP4 signal, the “Selectivity for BMP (times)” value stood at 308 times. Moreover, in the experiment with TGFβ signal, the inhibition at 3 µM worked out at 100% and the inhibition at 10 µM worked out at 100%.
